Experimental data reported in patent EP4474386A1, “ANTHRACYCLINES” (priority 2023, dated 2024).
Entries after “also recorded” stand apart in the source; their conditions may differ.

Legend:
[1] = tested on: γH2AX levels in K562 cells; assay: Assay 3: Western blot of γH2AX levels (DNA damage); type: cell-based, human; conditions: 10 µM, 2 h, FIGS. 3A & 3B
Procedure: Cells were seeded into 12-well format (e.g. 250.000 cells/well for K562, or Mjs), treated with indicated drugs at 10 µM for 2 hours. Subsequently, drugs were removed by extensive washing and cells were collected and processed immediately for the assays. Cells were lysed directly in SDS-sample buffer (2%SDS, 10% glycerol, 5% β-mercaptoethanol, 60mM Tris-HCl pH 6.8 and 0.01% bromophenol blue). Samples were separated by SDS-PAGE and transferred to a PVDF membrane (Immobilon-P, 0.45µm, Millipore). Blocking of the filters and antibody incubations were done in PBS supplemented with 0.1 (v/v)% Tween and 5% (w/v) milk powder (Skim milk powder, LP0031, Oxiod). Blots were imaged by the Odyssey Classic imager (Li-Cor). Intensity of bands was quantified using imaged or Image Studio software. For CFGE: DNA double strand breaks were quantified by constant-field gel electrophoresis as described in Wlodek D., Banáth J., & Olive P. L., International Journal of Radiation Biology, 1991, 60:5, 779-790. Images were quantified using imaged software.
Primary antibodies used for Western blotting: γH2AX (1:1000, 05-036, Millipore), β-actin (1:10000, A5441, Sigma). […]
Assay 3. […] This was determined by assessing γH2AX levels (see Kuo, L. J., Yang, L. X. In Vivo. April 2008, pp 305-310) using the assay for Western blot analysis described herein. […]

[2] = tested on: DNA double-strand breaks in K562 cells; assay: Assay 2: Constant-field gel electrophoresis (CFGE), DNA double-strand breaks; type: cell-based, human; conditions: 10 µM, 2 hours, FIGS. 3C & 3D
Procedure: Cells were seeded into 12-well format (e.g. 250.000 cells/well for K562, or Mjs), treated with indicated drugs at 10 µM for 2 hours. Subsequently, drugs were removed by extensive washing and cells were collected and processed immediately for the assays. DNA double strand breaks were quantified by constant-field gel electrophoresis as described in Wlodek D., Banáth J., & Olive P. L., International Journal of Radiation Biology, 1991, 60:5, 779-790. Images were quantified using imaged software.
Assay 2. Because anthracycline drugs can also evict histones, including H2AX, the levels of phosphorylated H2AX might be affected. To determine DNA double-strand break induction by the compounds embodying the present invention at the DNA level, we assessed the DNA damage capacity of all the compounds by using constant field gel electrophoresis (CFGE), as described below, a more direct method to detect DNA breaks. The results are set out in FIGS. 3C & 3D.

MelJuSo-PAGFP-H2A cells = assay: Assay 4: Microscopy analysis, PAGFP-H2A photoactivation and time-lapse confocal imaging (histone eviction); type: cell-based, human; conditions: 10 µM, 1 hour time-lapse; FIG. 4A
Procedure: For PAGFP-H2A photoactivation and time-lapse confocal imaging, cells were seeded in a 35mm glass bottom petri dish (Poly-dlysine-Coated, MatTek Corporation), and imaged 16 hours later as described in Pang, B., Qiao, X., Janssen, L. et al. Nat Commun 4, 2013, 1908 for one hour following addition of 10µM of the indicated drugs. Time-lapse confocal imaging was performed on a Leica SP8 confocal microscope system 63x lens, equipped with a climate chamber. Movies were quantified using imaged software.
Assay 4. This assay visualised histone eviction and subsequently, the chromatin damage induced by the compounds embodying the present invention could be assessed. The method followed is described in the assay for microscopy analysis described herein.

[3] = tested on: human myelogenous leukemic cell line K562; assay: Assay 1: Short-term growth inhibition viability assay (CellTiter-Blue); type: cell-based; conditions: K562 cells
Procedure: Cells were seeded into 96-well format (e.g. 2000 cells/well for K562, Mjs, or U2O cells). 24 hours after seeding, cells were treated with indicated compounds for 2 hours at various concentrations. Subsequently, compounds were removed, and cells were left to grow for an additional 72 hours. Cell viability was measured using the CellTiter-Blue viability assay (Promega). Relative survival was normalized to the untreated control and corrected for background signal.
K562 cells (B. Pang, Leiden University Medical Center, the Netherlands) were maintained in RPMI-1640 medium supplemented with 8% FCS. MelJuSo cells were maintained in IMDM supplemented with 8% FCS. MelJuSo cells stably expressing PAGFP-H2A were maintained in IMDM supplemented with 8% FCS and G-418, as described in Pang, B., Qiao, X., Janssen, L. et al. Nat Commun 4, 1908 (2013). U2Os cells (ATCC® HTB-96) were maintained in DMEM medium supplemented with 8% FCS. Cell lines were maintained in a humidified atmosphere of 5% CO2 at 37°C, regularly tested for the absence of mycoplasma and the origin of cell lines was validated using STR analysis.
Assay 1. Anthracyclines are often used in the treatment of acute myeloid leukaemia and other haematological malignancies. Therefore, the compounds shown in FIG. 1 were assayed for their activity versus human myelogenous leukemic cell line K562 in order to determine their cytotoxicity in vitro, using the assay for short-term growth inhibition viability described herein. […] IC50 is expressed in µM and represents the concentration of compound required to inhibit cell proliferation by 50%.

SMILES | DNA damage (γH2AX levels) [1] | DNA double-strand break induction (CFGE) [2] | chromatin damage / rate of histone eviction (in words) (MelJuSo-PAGFP-H2A cells) | cytotoxicity (in words, compared with reference anthracyclines) ([3]; FIG. 2A) | IC50 ([3]; 2 hours treatment, then 72 hours growth) | times more cytotoxic than doxorubicin (1) ([3]; relative to doxorubicin (1))
CC(=O)[C@]1(O)Cc2c(O)c3c(c(O)c2[C@@H](O[C@H]2C[C@H](N(C)C)[C@H](O)[C@H](C)O2)C1)C(=O)c1ccccc1C3=O [Compound 18, N,N-dimethylidarubicin] | did not induce DNA damage | do not induce DNA; also recorded: does not induce any DNA double-strand breaks | superior chromatin damage activity relative to doxorubicin (1); also recorded: improved or comparable toxicity and rate of histone eviction relative to doxorubicin (1) and idarubicin (17) | – | – | –
CC(=O)[C@]1(O)Cc2c(O)c3c(c(O)c2[C@@H](O[C@H]2C[C@H](N(C)C)[C@H](O[C@H]4C[C@H](O)[C@H](O[C@H]5CCC(=O)[C@H](C)O5)[C@H](C)O4)[C@H](C)O2)C1)C(=O)c1ccccc1C3=O [Compound 26, 7-[2,3-Dideoxy-4-ulo-α-L-fucopyranosyl-2-deoxy-α-L-fucopyranosyl-(1→4)- -2,3-dideoxy-3-dimethylamino-α-L-fucopyranoside]-idarubicinone] | did not induce DNA damage | do not induce DNA; also recorded: not inducing any DNA double-strand breaks | superior chromatin damage activity relative to doxorubicin (1); also recorded: fastest histone eviction activity; also recorded: more efficient in terms of histone eviction | considerably more cytotoxic than doxorubicin (1); also recorded: most effective compound tested; also recorded: more toxic than doxorubicin (1), aclarubicin (2) and idarubicin (17) | 20 nM | 16 times
